We go through 13 compounds from PubChem BioAssay (NCI).

Test systems include CCRF-CEM leukemia; NCI-H226 lung; ACHN renal; SF-539 CNS; HCT-15 colon; A549 NSCLC; MCF7 breast; NCI-H522 lung; SNB-75 CNS; OVCAR-3 ovarian.
What all share (test): DTP human tumour cell line panel, 48 h

Where “and” joins values, the source holds several entries; their conditions need not be identical. Identical values can stand only once.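 Method: 48-hour compound exposure of cells in 96-well plates, five concentrations, linear interpolation of endpoints. Abbreviation: GI50, concentration required for 50% inhibition of growth. At the TGI there is no net growth.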

For `CC[N+](CC)=c1sc2c(s1)C(c1ccc(Cl)cc1)Oc1ccc(Cl)cc1-2` (stereo not given), the GI50 (as a rule, the concentration giving 50% growth inhibition) with CCRF-CEM leukemia was 0.665 µM; with NCI-H226 lung it was 5.56 µM; in the assay on ACHN renal, 11.3 µM; in the assay on SF-539 CNS it was 1.46 µM; in the assay on HCT-15 colon, 7.13 µM; with A549 NSCLC, 1.86 µM. Besides, the GI50 is 1.54 µM in the assay with MCF7 breast, 0.67 µM in the assay on NCI-H522 lung, 0.783 µM in the assay on SNB-75 CNS and 1.91 µM in the assay on OVCAR-3 ovarian. The concentration for total growth inhibition (TGI) (in general, the concentration giving total growth inhibition) in the assay on CCRF-CEM leukemia was 6.35 µM; in the assay on NCI-H226 lung, 33.1 µM; in the assay on ACHN renal, 23.9 µM; in the assay on SF-539 CNS it was 2.97 µM; in the assay on HCT-15 colon it was 21.5 µM; in the assay with A549 NSCLC it was 6.9 µM. Moreover, the total growth inhibition concentration (TGI) was 4.73 µM in the assay with MCF7 breast, 2.89 µM in the assay with NCI-H522 lung, 10.6 µM in the assay on SNB-75 CNS and 3.95 µM with OVCAR-3 ovarian.
Turning to `Cc1nc(SCC(=O)Nc2nc(-c3ccc(Cl)cc3)cs2)n(Nc2ccccc2)c1C`, the GI50 is 5.49 µM in the assay with CCRF-CEM leukemia; 3.37 µM in the assay on NCI-H226 lung; 3.67 µM in the assay on ACHN renal; 1.9 µM in the assay on SF-539 CNS; 5.74 µM with HCT-15 colon; 2.9 µM in the assay with A549 NSCLC. Further, the GI50 with MCF7 breast was 2.94 µM; with NCI-H522 lung, 2.54 µM; in the assay on SNB-75 CNS, 3.48 µM; in the assay on OVCAR-3 ovarian, 3 µM. The TGI with CCRF-CEM leukemia was > 100 µM; in the assay on NCI-H226 lung it was 18.8 µM; in the assay on ACHN renal, 14.1 µM; in the assay on SF-539 CNS, 4.27 µM; in the assay with HCT-15 colon, 23.3 µM; in the assay on A549 NSCLC it was 11.6 µM. In addition, the total growth inhibition concentration (TGI) in the assay with MCF7 breast came to 11.4 µM; in the assay on NCI-H522 lung it was 13.7 µM; in the assay with SNB-75 CNS it was 16.2 µM; with OVCAR-3 ovarian, 12.1 µM.
As for `CC(=O)OCC1OC(n2c(-c3ccc(Cl)cc3)ccc(C#N)c2=S)C(OC(C)=O)C(OC(C)=O)C1OC(C)=O` (stereo not given), the concentration for total growth inhibition (TGI) in the assay with CCRF-CEM leukemia was > 100 µM; in the assay on NCI-H226 lung, > 100 µM; with ACHN renal, > 100 µM; with SF-539 CNS it was 99 µM and > 100 µM; in the assay on HCT-15 colon it was > 100 µM; with A549 NSCLC, > 100 µM. Also, the TGI with MCF7 breast was > 100 µM; in the assay on NCI-H522 lung, > 100 µM; in the assay with SNB-75 CNS, 14 µM and 82.9 µM; in the assay with OVCAR-3 ovarian, > 100 µM. The GI50 in the assay with NCI-H522 lung was 27.8 µM and 61.6 µM; in the assay with SNB-75 CNS, 5.05 µM and 26.9 µM; in the assay with OVCAR-3 ovarian, 98.7 µM and 48.1 µM.
With `C=C1C(O)C2C(=C(CCc3ccccc3)C13CC3)C(=O)C(C)(CO)C2O` (stereo not given), the GI50 in the assay with CCRF-CEM leukemia, in the assay with NCI-H226 lung, in the assay with ACHN renal, with SF-539 CNS, in the assay on HCT-15 colon and in the assay on A549 NSCLC was > 100 µM each time. The GI50 was 53.5 µM in the assay with MCF7 breast, > 100 µM in the assay with NCI-H522 lung, > 100 µM in the assay on SNB-75 CNS and > 100 µM in the assay with OVCAR-3 ovarian. In addition, the concentration for total growth inhibition (TGI) in the assay on CCRF-CEM leukemia, in the assay with NCI-H226 lung, in the assay on ACHN renal, in the assay on SF-539 CNS, in the assay with HCT-15 colon and in the assay with A549 NSCLC was > 100 µM throughout. Besides, the TGI in the assay on MCF7 breast, in the assay on NCI-H522 lung, in the assay on SNB-75 CNS and in the assay on OVCAR-3 ovarian was > 100 µM throughout.
As to `C=C(C)C(=O)O[C@H]1C[C@@]23O[C@@H]2CCC(=C[C@H]2OC(=O)C(=C)[C@H]12)COC3O` (stereo not given in full), the TGI with CCRF-CEM leukemia was 50.1 µM; in the assay on NCI-H226 lung, > 100 µM; with ACHN renal, > 100 µM; in the assay with SF-539 CNS it was > 100 µM; in the assay on HCT-15 colon it was 43.5 µM; in the assay on A549 NSCLC it was > 100 µM. Besides, the TGI in the assay on MCF7 breast was > 100 µM; in the assay with NCI-H522 lung, 30.7 µM; in the assay on SNB-75 CNS, > 100 µM; in the assay with OVCAR-3 ovarian it was > 100 µM.
On to `CCOC(=O)c1sc(-c2ccc(OS(=O)(=O)c3ccc(Br)s3)c(C=O)c2)nc1C`, for which the GI50 in the assay with CCRF-CEM leukemia is 2.36 µM; with NCI-H226 lung, 3.82 µM; in the assay with ACHN renal, 3.02 µM; in the assay with SF-539 CNS it was 2.43 µM; in the assay on HCT-15 colon, 2.61 µM; in the assay with A549 NSCLC, 22.7 µM. The GI50 is 2.86 µM in the assay on MCF7 breast, 2.96 µM in the assay on NCI-H522 lung, 1.6 µM with SNB-75 CNS and 2.48 µM with OVCAR-3 ovarian. The TGI in the assay on CCRF-CEM leukemia is 9.16 µM; with NCI-H226 lung, 23.1 µM; in the assay with ACHN renal it was 9.05 µM; in the assay with SF-539 CNS, 6.16 µM; with HCT-15 colon it was 7.79 µM; in the assay with A549 NSCLC, > 100 µM. For the same compound, the TGI in the assay on MCF7 breast was found to be 8.97 µM; with NCI-H522 lung, 10.5 µM; in the assay with SNB-75 CNS, 6.7 µM; in the assay on OVCAR-3 ovarian it was 6.71 µM.
Consider `COc1cc(/C=C2\C(=O)Nc3cc(C)c(O)cc32)cc(OC)c1OC`, for which the GI50 in the assay with CCRF-CEM leukemia is 2.89 µM; with NCI-H226 lung, 15.6 µM; with ACHN renal, 8.27 µM; in the assay with SF-539 CNS, 5.41 µM; in the assay with HCT-15 colon, 2.84 µM; in the assay with A549 NSCLC, 6.13 µM. Besides, the GI50 with MCF7 breast was 2.44 µM; with NCI-H522 lung, 2.59 µM; with SNB-75 CNS, 3.03 µM; in the assay on OVCAR-3 ovarian, 3.62 µM. Further, the concentration for total growth inhibition (TGI) in the assay on CCRF-CEM leukemia is 18.3 µM; in the assay on NCI-H226 lung, 46.5 µM; in the assay on ACHN renal, 24.6 µM; in the assay with SF-539 CNS, 19.6 µM; in the assay with HCT-15 colon it was 14.5 µM; in the assay with A549 NSCLC it was > 79.6 µM. For the same compound, the concentration for total growth inhibition (TGI) with MCF7 breast was 26.4 µM; with NCI-H522 lung, 12.1 µM; in the assay with SNB-75 CNS, > 30 µM; in the assay on OVCAR-3 ovarian, 12.8 µM.
Take `O=C1c2ccccc2-c2c1c1c(=O)[nH]c3ccccc3c1n2Cc1ccccc1`: the GI50 in the assay on CCRF-CEM leukemia is > 100 µM; in the assay with NCI-H226 lung, 24.5 µM; in the assay on ACHN renal, 13 µM; in the assay with SF-539 CNS, 17.8 µM; in the assay with HCT-15 colon, 59.1 µM; in the assay with A549 NSCLC, > 100 µM. Moreover, the GI50 was 35.8 µM in the assay with MCF7 breast, 42.7 µM with NCI-H522 lung, 15.6 µM in the assay on SNB-75 CNS and 35 µM with OVCAR-3 ovarian. For the same compound, the TGI was > 100 µM with CCRF-CEM leukemia; 67.4 µM in the assay on NCI-H226 lung; 25.6 µM in the assay with ACHN renal; 40.5 µM in the assay with SF-539 CNS; > 100 µM with HCT-15 colon; > 100 µM in the assay with A549 NSCLC. Also, the TGI with MCF7 breast was > 100 µM; in the assay with NCI-H522 lung it was > 100 µM; in the assay with SNB-75 CNS, 30.1 µM; with OVCAR-3 ovarian it was > 100 µM.
With `COc1ccc(-c2cc(=O)c3ccc(C)nc3[nH]2)cc1`, the TGI in the assay with CCRF-CEM leukemia, with NCI-H226 lung, in the assay with ACHN renal, in the assay with SF-539 CNS, in the assay with HCT-15 colon and in the assay on A549 NSCLC was > 100 µM each time. Further, the TGI in the assay on MCF7 breast, in the assay on NCI-H522 lung and in the assay with OVCAR-3 ovarian was > 100 µM each time. Moreover, the GI50 with OVCAR-3 ovarian is > 100 µM.
In the case of `Oc1[nH]c2ccccc2c1N=Nc1ccccn1`, the total growth inhibition concentration (TGI) in the assay with CCRF-CEM leukemia is 58.8 µM; in the assay on NCI-H226 lung, 61.7 µM; with ACHN renal, 23 µM; in the assay with HCT-15 colon, > 100 µM; in the assay with A549 NSCLC, > 100 µM; with MCF7 breast it was > 100 µM. The TGI with NCI-H522 lung is 78.8 µM; in the assay with SNB-75 CNS, 86.6 µM; with OVCAR-3 ovarian, > 100 µM.
`C=C1C(=O)O[C@H]2[C@H]1CC/C(COC(=O)CSCCSCC(=O)OC/C1=C/CC[C@@]3(C)O[C@H]3[C@H]3OC(=O)C(=C)[C@@H]3CC1)=C\CC[C@@]1(C)O[C@@H]21`: the GI50 was 0.468 µM in the assay with CCRF-CEM leukemia; 3.51 µM with NCI-H226 lung; 1.7 µM in the assay with ACHN renal; 1.55 µM with SF-539 CNS; 1.55 µM in the assay with HCT-15 colon; 2.72 µM in the assay with A549 NSCLC. Besides, the GI50 in the assay with MCF7 breast was 0.832 µM; in the assay with NCI-H522 lung, 1.29 µM; with OVCAR-3 ovarian, 1.15 µM. The TGI in the assay on CCRF-CEM leukemia came out at 3.24 µM; in the assay with NCI-H226 lung, 13.6 µM; in the assay with ACHN renal it was 3.23 µM; in the assay with SF-539 CNS, 3.12 µM; with HCT-15 colon it was 3.01 µM; in the assay on A549 NSCLC, 8.21 µM. Also, the TGI in the assay with MCF7 breast was 2.66 µM; in the assay with NCI-H522 lung, 2.8 µM; in the assay on OVCAR-3 ovarian, 2.44 µM.
Turning to `COc1cccc(-c2cc(=O)c3cc(OC)ccc3[nH]2)c1`, the GI50 in the assay on CCRF-CEM leukemia was 0.0281 µM; with NCI-H226 lung, 0.121 µM; with ACHN renal, 0.661 µM; in the assay with HCT-15 colon it was 0.0485 µM; in the assay with A549 NSCLC it was 0.305 µM; with MCF7 breast, 0.296 µM. Besides, the 50% growth inhibitory concentration (GI50) is 0.121 µM and 0.0373 µM in the assay on NCI-H522 lung; 0.025 µM in the assay on OVCAR-3 ovarian. Besides, the TGI in the assay with CCRF-CEM leukemia is 0.248 µM; in the assay on NCI-H226 lung, 1.57 µM and 7.23 µM; in the assay with ACHN renal it was > 100 µM; with SF-539 CNS it was 0.451 µM; in the assay with A549 NSCLC, > 100 µM; with MCF7 breast it was > 100 µM. The TGI is 0.392 µM and 0.175 µM in the assay on NCI-H522 lung; 0.384 µM and 0.0812 µM in the assay with OVCAR-3 ovarian.
Consider `Cc1cc(=O)oc2cc(OC(=O)N(C)C)c(Cl)cc12`, for which the TGI in the assay with CCRF-CEM leukemia, with NCI-H226 lung, in the assay on ACHN renal, in the assay on SF-539 CNS, in the assay with HCT-15 colon and in the assay on A549 NSCLC was > 100 µM throughout. For the same compound, the TGI in the assay with MCF7 breast, in the assay on NCI-H522 lung and in the assay with OVCAR-3 ovarian was > 100 µM each time.
